Results as given in paper PMC10507807, “De novo design of a stapled peptide targeting SARS-CoV-2 spike protein receptor-binding domain” (RSC Medicinal Chemistry, 2023).
“Also recorded” adds a separate entry of the source. Starred links: 1 amine or outer side, 2 acyl side, 3 side chain; linkers in the order of their positions; H or OH if unused. Positions of bridges follow the written chain, without caps; N, C: chain ends. Non-standard residues stand in square brackets, D forms with d. Residues, ends and D or L forms follow the SMILES beside them. X1 = C[C@@](CC=[*:3])(N[*:1])C(=O)[*:2]

Key:
[1] = tested on: omicron (B.1.1.529) variant; type: binding, SARS-CoV-2
[2] = tested on: SARS-CoV-2 alpha variant (B.1.1.7); type: cell-based
[3] = target: recombinant SARS-CoV-2 spike B.1.617.2 (delta variant); type: binding

Row | Molecule | binding to omicron variant [1] | inhibition of SARS-CoV-2 virus replication [2] | decrease of viral replication compared to PBS control ([2]; 48 h) | Kd ([3]; read-out: KD (dissociation constant)) | dissociation constant of ACE2 with delta variant compared with wild-type spike [3]
1 | CSCC[C@@H]1NC(=O)[C@H](CC(N)=O)NC(=O)[C@@H]2CC(=O)NCCCC[C@H](NC(=O)[C@H](Cc3c[nH]c4ccccc34)NC(=O)[C@@H](NC(=O)[C@H](CCCCN)NC(=O)[C@H](Cc3ccc(O)cc3)NC(=O)[C@H](CC(C)C)NC(=O)[C@H](Cc3c[nH]c4ccccc34)NC(=O)[C@H](CCC(=O)O)NC(=O)[C@@H](NC(=O)CNC(C)=O)[C@@H](C)O)C(C)C)C(=O)N[C@@H](C)C(=O)N[C@@H](Cc3ccccc3)C(=O)N[C@@](C)(C/C=C/C[C@@](C)(C(=O)O)NC1=O)C(=O)N2 [pep39] (Ac-GTEWLYKVWKAF[X1]DNM[X1]-OH; lactam 10-14; staple (E) 13-17) | not as promising as those observed with the original spike protein and the delta variant | strongly inhibits SARS-CoV-2 virus replication in Vero E6 cells; also recorded: SARS-CoV-2 viral replication was significantly inhibited | 82.3% | 4.1 ± 1.4 µM | –
2 | ACE2 | – | – | – | – | more favorable for binding than the wild-type spike protein
